Data published in US10857105B2, “Compounds and compositions for intracellular delivery of therapeutic agents” (ModernaTX, Inc., priority 2017, dated 2020).

Assays:
[1] = Particle size and polydispersity index of nanoparticle compositions (Zetasizer Nano ZS); type: physicochemical
Description: A Zetasizer Nano ZS (Malvern Instruments Ltd, Malvern, Worcestershire, UK) can be used to determine the particle size, the polydispersity index (PDI) and the zeta potential of the nanoparticle compositions in 1×PBS in determining particle size and 15 mM PBS in determining zeta potential.
(§1) Initial studies were performed to compare the delivery efficiency of nanoparticle compositions including various compounds according to Formula (I), (IA), (IB), (II), (IIa), (IIb), (IIc), (IId), (IIe), (IIf), (IIg), or (III). The cationic lipid MC3 is a current standard in the art. Accordingly, the standard MC3 formulation including about 50 mol % MC3, about 10 mol % DSPC, about 38.5 mol % cholesterol, and about 1.5 mol % PEG-DMG was used as a basis for this study. Nanoparticle compositions including DSPC as a phospholipid, cholesterol as a structural lipid, PEG-DMG as a PEG lipid, an RNA, and a compound according to Formula (I), (IA), (IB), (II), (IIa), (IIb), (IIc), (IId), (IIe), (IIf), (IIg), or (III) selected from Compounds 1-159, 168-170, and 173-175 were prepared according to or via methods similar to those described in Examples 1 and 2. The ratios of the lipids were 50:10:38.5:1.5 mol % for the lipid according to Formula (I), (IA), (IB), (II), (IIa), (IIb), (IIc), (IId), (IIe), (IIf), (IIg), or (III):DSPC:cholesterol:PEG-DMG. The RNA used was an mRNA encoding luciferase (Luc) or hEPO, wherein each uridine was replaced N1-methyl pseudouridine. Tables 1A-1E summarize the content and characteristics of the formulations.

modified luciferase = assay: Luciferase expression in liver, lung, spleen and femur 6 hours after intravenous administration to mice; type: in vivo; conditions: 6 hours after intravenous 0.5 mpk, mice
Description: The efficacy of the nanoparticle compositions presented in Table 1A was further evaluated by measuring the expression of modified luciferase in the liver, lung, spleen, and femur upon administration of a given composition. Formulations were administered intravenously to mice (n=3) at a dosage of 0.5 mpk and bioluminescence measured after 6 hours. The standard MC3 formulation and a PBS control were also tested. […] Flux in the liver was lowest for compositions including Compounds 58, 59, 137, and 141. Flux in the spleen was highest for compositions including Compounds 4, 7, 33, 34, 48, 53, 108, 129, 130, and 148, and lowest for compositions including Compounds 9, 59, 124, and 141.

[2] = Encapsulation efficiency of RNA in nanoparticle compositions (RIBOGREEN assay); type: physicochemical; conditions: Table 1A; lipid:DSPC:cholesterol:PEG-DMG 50:10:38.5:1.5 mol %
Description: For nanoparticle compositions including an RNA, a QUANT-IT™ RIBOGREEN® RNA assay (Invitrogen Corporation Carlsbad, Calif.) can be used to evaluate the encapsulation of an RNA by the nanoparticle composition. The samples are diluted to a concentration of approximately 5 μg/mL, in a TE buffer solution (10 mM Tris-HCl, 1 mM EDTA, pH 7.5). 50 μL of the diluted samples are transferred to a polystyrene 96 well plate and either 50 μL of TE buffer or 50 μL of a 2% Triton X-100 solution is added to the wells. The plate is incubated at a temperature of 37° C. for 15 minutes. The RIBOGREEN® reagent is diluted 1:100 in TE buffer, and 100 μL of this solution is added to each well. The fluorescence intensity can be measured using a fluorescence plate reader (Wallac Victor 1420 Multilabel Counter; Perkin Elmer, Waltham, Mass.) at an excitation wavelength of, for example, about 480 nm and an emission wavelength of, for example, about 520 nm. The fluorescence values of the reagent blank are subtracted from that of each of the samples and the percentage of free RNA is determined by dividing the fluorescence intensity of the intact sample (without addition of Triton X-100) by the fluorescence value of the disrupted sample (caused by the addition of Triton X-100).
as §1

[3] = Table 1A, lipid:DSPC:cholesterol:PEG-DMG 50:10:38.5:1.5 mol %
[4] = Table 1C, compositions for subcutaneous administration

| Structure (SMILES) | Size [1, 3] [nm] | Total Flux, Liver (modified luciferase) | Total Flux, Lung (modified luciferase) | Total Flux, Spleen (modified luciferase) | EE [2] [%] | Size ([1]; Table 1D, compositions for subcutaneous administration, # formulated with hEPO mRNA) [nm] | Size [1, 4] [nm] |
| --- | --- | --- | --- | --- | --- | --- | --- |
| CCCCCCCCC(C)OC(=O)CCCCCCCN(CCO)CCCCCCCC(=O)N(CCCCCCCC)CCCCCCCC (stereo not shown) [Compound 130, Decan-2-yl 8-((8-(dioctylamino)-8-oxooctyl)(2-hydroxyethyl)amino)octanoate] | 107.1 | 8.17E+09 | 5.88E+07 | 1.35E+09 | – | – | – |
| CCCCCCCCCOC(=O)CCCCCCCN(CCO)CCCCCCCC(=O)Oc1ccc(CCCCC)cc1 [Compound 119, Nonyl 8-((2-hydroxyethyl)(8-oxo-8-(4-pentylphenoxy)octyl)amino)octanoate] | 60.8 | – | – | – | – | – | – |
| CCCCCCCCCOC(=O)CCCCCCCN(CCO)CCCCCCCC(=O)OC(C)CCCCCCCC (stereo not shown) [Compound 36, decan-2-yl 8-((2-hydroxyethyl)(8-(nonyloxy)-8-oxooctyl)amino) octanoate] | – | 2.65E+07 | 5.82E+05 | 6.14E+07 | 81.45 | – | – |
| CCCCCCCCC(CCCCCCCC)OC(=O)CCCCCCCN(CCO)CCCCCC(=O)OC1CCC(CCCCC)CC1 (stereo not shown) [Compound 68, Heptadecan-9-yl 8-((2-hydroxyethyl)(6-oxo-6-((4-pentylcyclohexyl)oxy)hexyl)amino)octanoate] | 76.8 | 8.42E+09 | 3.98E+07 | 6.69E+07 | – | – | – |
| CCCCCCCCCOC(=O)CCCCCCCN(CCO)CCCCCCCC(=O)OC(CC)CC [Compound 59, nonyl 8-((2-hydroxyethyl)(8-oxo-8-(pentan-3-yloxy)octyl)amino) octanoate] | – | 2.87E+05 | 4.41E+04 | 9.68E+04 | 94.44 | – | – |
| CCCCCCCCCOC(=O)CCCCCCCN(CCCCCCCC(=O)OC(CCCCCCCC)CCCCCCCC)CCCNC(=N)N [Compound 207, Heptadecan-9-yl 8-((3-guanidinopropyl)(8-(nonyloxy)-8-oxooctyl)amino)octanoate] | – | – | – | – | – | 81.4 | – |
| CCCCCCCCCOC(=O)CCCCCCCN(CCCCCCCC(=O)OC(CCCCCCCC)CCCCCCCC)CCCn1ccc(N)nc1=O [Compound 115, Heptadecan-9-yl 8-((3-(4-amino-2-oxopyrimidin-1(2H)-yl)propyl)(8-(nonyloxy)-8-oxooctyl)amino)octanoate] | 64.5 | – | – | – | – | – | – |
| CCCCCCCCCOC(=O)CCCCCCCN(CCO)CCCCCCCC(=O)Oc1ccc(CCCCC)c(CCCCC)c1 [Compound 118, 3,4-Dipentylphenyl 8-((2-hydroxyethyl)(8-(nonyloxy)-8-oxooctyl)amino)octanoate] | 72.1 | 1.72E+08 | 1.98E+06 | 2.49E+07 | – | – | – |
| CCCCCCCCC(CCCCCCCC)OC(=O)CCCCCCCN(CCO)CCCC(=O)OCC1CC1CCCCCC (stereo not shown) [Compound 55, heptadecan-9-yl 8-((4-((2-hexylcyclopropyl)methoxy)-4-oxobutyl)(2-hydroxyethyl)amino)octanoate] | 91.6 | 1.92E+09 | 7.02E+06 | 2.63E+07 | – | – | – |
| CCCCCCCCC(CCCCCCCC)OC(=O)CCCCCCCN(CCO)CCCCCCCC(=O)OC(CCCCCCCC)C1CC1 (stereo not shown) [Compound 65, 1-Cyclopropylnonyl 8-((8-(heptadecan-9-yloxy)-8-oxooctyl)(2-hydroxyethyl)amino)octanoate] | 63.9 | 9.56E+09 | 3.79E+07 | 6.57E+07 | – | – | – |
| CCCCCCCCC(CC)OC(=O)CCCN(CCO)CCCCCCCC(=O)OC(CCCCCCCC)CCCCCCCC (stereo not shown) [Compound 72, Heptadecan-9-yl 8-((2-hydroxyethyl)(4-oxo-4-(undecan-3-yloxy)butyl)amino)octanoate] | 76.8 | 7.97E+08 | 1.05E+07 | 6.40E+06 | – | – | 77.3 |
| CCCCCCCCC(CCCCCCCC)OC(=O)CCCCCCCN(CCO)CCCC(=O)OC1CCC(CCCCC)CC1 (stereo not shown) [Compound 67, Heptadecan-9-yl 8-((2-hydroxyethyl)(4-oxo-4-((4-pentylcyclohexyl)oxy)butyl)amino)octanoate] | 77 | 3.60E+09 | 1.68E+07 | 2.55E+07 | – | – | – |
| CCCCCCCCC(CC)OC(=O)CCCCCN(CCO)CCCCCCCC(=O)OC(CCCCCCCC)CCCCCCCC (stereo not shown) [Compound 75, Heptadecan-9-yl 8-((2-hydroxyethyl)(6-oxo-6-(undecan-3-yloxy)hexyl)amino)octanoate] | 92.1 | 1.45E+09 | 3.92E+06 | 5.66E+06 | – | – | 88.6 |
| CCCCCCCCC(CCCCCCCC)OC(=O)CCCCCCCN(C)CCCCCCCC(=O)OC(CCCCCCCC)CCCCCCCC [Compound 124, Di(heptadecan-9-yl) 8,8′-(methylazanediyl)dioctanoate] | 61.3 | 8.46E+06 | 5.67E+04 | 8.06E+04 | – | – | – |
| CCCCCCCCC(CCC)OC(=O)CCCN(CCO)CCCCCCCC(=O)OC(CCCCCCCC)CCCCCCCC (stereo not shown) [Compound 74, Heptadecan-9-yl 8-((4-(dodecan-4-yloxy)-4-oxobutyl)(2-hydroxyethyl)amino)octanoate] | 65.6 | 1.99E+09 | 6.93E+06 | 2.26E+07 | – | – | – |
| CCCCCCCCCOC(=O)CCCCCCCN(CCO)CCCCCCCC(=O)OC(CC)CCCCCCCC (stereo not shown) [Compound 35, nonyl 8-((2-hydroxyethyl)(8-oxo-8-(undecan-3-yloxy)octyl)amino) octanoate] | – | 1.63E+08 | 2.06E+06 | 1.23E+08 | 90.82 | – | – |
| CCCCCCCCC(C)OC(=O)CCCN(CCO)CCCCCCCC(=O)OC(CCCCCCCC)CCCCCCCC (stereo not shown) [Compound 70, Heptadecan-9-yl 8-((4-(decan-2-yloxy)-4-oxobutyl)(2-hydroxyethyl)amino)octanoate] | 73.7 | 8.55E+08 | 6.32E+06 | 2.06E+06 | – | – | – |
| CCCCCCCCCOC(=O)CCCCCCCN(CCCCCCCC(=O)OC(CCCCCCCC)CCCCCCCC)CCCn1cnc2c(N)ncnc21 [Compound 116, Heptadecan-9-yl 8-((3-(6-amino-9H-purin-9-yl)propyl)(8-(nonyloxy)-8-oxooctyl)amino)octanoate] | 63.3 | – | – | – | – | – | – |
| CCCCCCCCCOC(=O)CCCCCCCN(CCCCCCCC(=O)OC(CCCCCCCC)CCCCCCCC)CCCN1C(=O)CNC1=O [Compound 174, Heptadecan-9-yl 8-((3-(2,5-dioxoimidazolidin-1-yl)propyl)(8-(nonyloxy)-8-oxooctyl)amino)octanoate] | 84.4 | – | – | – | – | – | – |
| CCCCCCCCCOC(=O)CCCN(C)CCCCCCCC(=O)OC(CCCCCCCC)CCCCCCCC [Compound 126, Heptadecan-9-yl 8-(methyl(4-(nonyloxy)-4-oxobutyl)amino)octanoate] | 77.4 | 7.41E+08 | 2.68E+06 | 1.87E+07 | – | – | – |
